# Literature values in patent US7658956B2, “Erectile dysfunction phyto-nutraceutical synergistic composition” (priority 2006, dated 2010).
# Tests used:
# [1] = tested on: patients with erectile dysfunction; settings: 30 patients per group
# spermatozoa = settings: in vitro
# [2] = tested on: bacterial resistance mechanism (multidrug pump)
molecule,measurement,setting,value
O=c1n(CCCN2CCN(c3cccc(Cl)c3)CC2)nc2ccccn12 [trazodone],overall therapeutic efficacies on erectile dysfunction,[1],30%
C[C@H](CC[C@@]1(O)O[C@H]2C[C@H]3[C@@H]4CC=C5C[C@@H](O[C@@H]6O[C@H](CO)[C@@H](O[C@@H]7O[C@@H](C)[C@H](O)[C@@H](O)[C@H]7O)[C@H](O)[C@H]6O[C@@H]6O[C@@H](C)[C@H](O)[C@@H](O)[C@H]6O)CC[C@]5(C)[C@H]4CC[C@]3(C)[C@H]2[C@@H]1C)CO[C@@H]1O[C@H](CO)[C@@H](O)[C@H](O)[C@H]1O [Protodioscin],pro-erectile activity (relaxant effect),rabbit corpus cavernosum,pro-erectile activity
Vitamin E,ROS mediated damage on spermatozoa,spermatozoa,protects against ROS mediated damage
same,treated patients who impregnated their spouses,asthenospermic patients; Eleven out of 52 treated patients,21%
same,MDA concentration in spermatozoa,"asthenospermic patients; oral, asthenospermic patients",significantly decreased
same,sperm motility,"asthenospermic patients; oral, asthenospermic patients",improved sperm motility
"COc1cc([C@H]2Oc3cc(-c4cc(=O)c5c(O)cc(O)cc5o4)cc(OC)c3O[C@@H]2CO)ccc1O (racemic) [5′-MHC, 5′-methoxyhydnocarpin]",accumulation of berberine in the cells,[2]; in the presence of 5′-MHC,strong increase
same,activity of herbal Berberine alkaloids under the action of 5′-MHC,[2]; in vitro,strongly potentiated
